Here are results for 47 molecules from ChEMBL document CHEMBL1129291, “Tyrosine kinase inhibitors. 8. An unusually steep structure-activity relationship for analogues of 4-(3-bromoanilino)-6,7-dimethoxyquinazoline (PD 153035), a potent inhibitor of the epidermal growth factor receptor” (J Med Chem, 1996).

The experiment deals with Epidermal growth factor receptor (Homo sapiens, UniProt P00533). Put plainly: Concentration required to inhibit the phosphorylation of a 14-residue fragment of phospholipase C gamma 1 by Epidermal growth factor receptor from A431 cell vesicles.
Sequence of Epidermal growth factor receptor (P00533 whole entry, the tested form may be a part): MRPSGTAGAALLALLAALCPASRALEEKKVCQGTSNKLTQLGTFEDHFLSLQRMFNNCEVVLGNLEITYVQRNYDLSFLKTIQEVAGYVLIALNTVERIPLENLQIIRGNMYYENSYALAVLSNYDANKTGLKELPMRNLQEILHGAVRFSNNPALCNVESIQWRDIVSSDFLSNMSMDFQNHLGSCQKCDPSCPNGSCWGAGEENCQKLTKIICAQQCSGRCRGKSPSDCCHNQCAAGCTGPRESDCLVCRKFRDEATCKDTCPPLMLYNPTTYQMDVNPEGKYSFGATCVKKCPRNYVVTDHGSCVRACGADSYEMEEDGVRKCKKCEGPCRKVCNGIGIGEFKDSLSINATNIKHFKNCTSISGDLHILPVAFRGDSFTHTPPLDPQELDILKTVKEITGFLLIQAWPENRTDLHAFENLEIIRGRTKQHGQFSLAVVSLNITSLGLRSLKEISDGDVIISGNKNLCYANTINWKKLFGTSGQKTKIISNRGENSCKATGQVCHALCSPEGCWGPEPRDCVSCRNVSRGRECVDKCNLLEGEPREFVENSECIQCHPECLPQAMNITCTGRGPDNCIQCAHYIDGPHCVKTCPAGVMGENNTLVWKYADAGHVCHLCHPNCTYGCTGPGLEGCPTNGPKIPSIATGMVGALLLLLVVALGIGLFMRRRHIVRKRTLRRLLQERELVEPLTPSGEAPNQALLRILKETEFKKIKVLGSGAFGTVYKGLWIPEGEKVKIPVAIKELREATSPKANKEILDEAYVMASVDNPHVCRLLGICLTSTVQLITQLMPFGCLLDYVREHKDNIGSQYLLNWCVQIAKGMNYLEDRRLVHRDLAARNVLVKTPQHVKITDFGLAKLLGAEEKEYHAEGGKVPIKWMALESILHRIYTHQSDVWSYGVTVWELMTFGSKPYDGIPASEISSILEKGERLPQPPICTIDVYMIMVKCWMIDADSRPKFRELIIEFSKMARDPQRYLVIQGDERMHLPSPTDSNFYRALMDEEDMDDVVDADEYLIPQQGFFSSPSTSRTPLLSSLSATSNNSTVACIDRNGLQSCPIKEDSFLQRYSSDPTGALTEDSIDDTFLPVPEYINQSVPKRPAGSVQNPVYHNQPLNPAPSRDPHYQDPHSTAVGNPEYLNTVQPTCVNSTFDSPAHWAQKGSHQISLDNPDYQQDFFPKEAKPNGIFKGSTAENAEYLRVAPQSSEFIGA

`Oc1ccc2c(Nc3cccc(Br)c3)ncnc2c1`: the IC50 (in general, the midpoint of a concentration-inhibition curve) is 4.7 nM.
The same measure for `Fc1cccc(Nc2ncnc3ccccc23)c1`: 56 nM.
The same measure for `CN(C)c1ccc2ncnc(Nc3cccc(Br)c3)c2c1`: 84 nM; for `COc1ccc2ncnc(Nc3ccccc3)c2c1`: 55 nM.
The same measure for `O=[N+]([O-])c1ccc2ncnc(Nc3cccc(C(F)(F)F)c3)c2c1`: over 10000 nM.
Turning to `CC(=O)Nc1cc2ncnc(Nc3cccc(Br)c3)c2cc1[N+](=O)[O-]`, half-maximal inhibition (IC50) was put at 28 nM.
The same measure for `COc1cc2ncnc(Nc3ccccc3Br)c2cc1OC`: 128 nM; for `COc1cc2ncnc(Nc3cccc(Br)c3)c2cc1N`: 3.8 nM.
Molecule `COc1cc2nc(N)nc(Nc3cccc(Br)c3)c2cc1OC` gave an IC50 of 463 nM.
The same measure for `CNc1ccc2ncnc(Nc3cccc(Br)c3)c2c1`: 4 nM; for `Nc1cc2ncnc(Nc3cccc(Br)c3)c2cc1[N+](=O)[O-]`: 53 nM.
The same measure for `CC(=O)Nc1ccc2c(Nc3cccc(Br)c3)ncnc2c1`: 40 nM; for `COc1cc2ncnc(Nc3ccc(Br)c(Br)c3)c2cc1OC`: 0.072 nM; for `O=[N+]([O-])c1ccc2c(Nc3cccc(Cl)c3)ncnc2c1`: 810 nM.
The same measure for `Nc1ccc2c(Nc3cccc(I)c3)ncnc2c1`: 0.35 nM; for `COc1ccc2c(Nc3ccccc3)ncnc2c1`: 120 nM.
Regarding `COc1cc2ncnc(Nc3cccc(C(F)(F)F)c3)c2cc1OC`, half-maximal inhibition (IC50) was put at 0.24 nM. This IC50 lies about 500-fold lower than the previous one.
The same measure for `O=[N+]([O-])c1ccc2c(Nc3cccc(C(F)(F)F)c3)ncnc2c1`: over 10000 nM; for `COc1cc2ncnc(Nc3cccc(Br)c3)c2cc1[N+](=O)[O-]`: 15 nM; for `Nc1cc2c(Nc3cccc(Br)c3)ncnc2cc1Cl`: 6.5 nM.
The same measure for `COc1ccc2ncnc(Nc3cccc(Br)c3)c2c1OC`: 1370 nM.
The same measure for `Nc1ccc2ncnc(Nc3cccc(C(F)(F)F)c3)c2c1`: 574 nM; for `CN(C)c1cc2ncnc(Nc3cccc(Br)c3)c2cc1[N+](=O)[O-]`: 2000 nM; for `CCOc1cc2ncnc(Nc3cccc(Br)c3)c2cc1OCC`: 0.006 nM.
As for `COc1cc2c(Nc3cccc(Br)c3)ncnc2c(OC)c1OC`, the IC50 is over 10000 nM.
The same measure for `Brc1cccc(Nc2ncnc3cc4c(cc23)OCO4)c1`: 15 nM; for `CN(C)c1ccc2c(Nc3cccc(Br)c3)ncnc2c1`: 11 nM.
The same measure for `COc1cc2ncnc(Nc3cccc(Br)c3)c2c(OC)c1OC`: 0.67 nM.
As for `Nc1ccc2c(Nc3cccc(Cl)c3)ncnc2c1`, the IC50 came out at 0.25 nM.
Take `COc1cc2ncnc(Nc3ccccc3)c2cc1OC`: the IC50 worked out at 29 nM.
`COc1cc2ncnc(Nc3cc(Br)cc(Br)c3)c2cc1OC` yielded an IC50 of 113 nM.
The same measure for `COc1cc2ncnc(Nc3cccc(I)c3)c2cc1OC`: 0.89 nM; for `Nc1ccc2c(Nc3cccc(F)c3)ncnc2c1`: 2 nM.
`COc1ccc2c(Nc3cccc(Br)c3)ncnc2c1OC` came in with an IC50 of over 10000 nM.
The same measure for `O=[N+]([O-])c1cc2c(Nc3cccc(Br)c3)ncnc2cc1Cl`: 25 nM; for `O=[N+]([O-])c1ccc2ncnc(Nc3ccccc3)c2c1`: 5000 nM.
The same measure for `Nc1ccc2ncnc(Nc3ccccc3)c2c1`: 770 nM.
The same measure for `CCCOc1cc2ncnc(Nc3cccc(Br)c3)c2cc1OCCC`: 0.17 nM; for `CCCCOc1cc2ncnc(Nc3cccc(Br)c3)c2cc1OCCCC`: 105 nM.
For the molecule `COc1ccc2ncnc(Nc3cccc(Br)c3)c2c1`, half-maximal inhibition (IC50) was put at 30 nM.
The same measure for `CNc1cc2ncnc(Nc3cccc(Br)c3)c2cc1N`: 0.69 nM; for `COc1cc2nc(C)nc(Nc3cccc(Br)c3)c2cc1OC`: over 10000 nM; for `CNc1cc2ncnc(Nc3cccc(Br)c3)c2cc1[N+](=O)[O-]`: 68 nM.
In turn, `COc1cc2ncnc(Nc3ccc(Br)cc3)c2cc1OC` displayed an IC50 of 0.96 nM.
The same measure for `CN(C)c1cc2ncnc(Nc3cccc(Br)c3)c2cc1N`: 159 nM.
`O=[N+]([O-])c1ccc2c(Nc3ccccc3)ncnc2c1` came in with a half-inhibitory concentration (IC50) of 12000 nM.
The same measure for `O=[N+]([O-])c1ccc2c(Nc3cccc(I)c3)ncnc2c1`: 540 nM.
